Values joined by “and” are separate entries in the source; they are usually repeats but may differ in a detail not shown here. Equal entries are not always repeated. Where two headings read alike, the source gives them in different places.
Assays:
OATP1B1 = biological target: T1, OATP1B1 (Homo sapiens, UniProt Q9Y6L6); assay: Inhibition of FMTX uptake in CHO cells stably transfected with OATP1B1; assay type: cell-based; conditions: for IC50: CHO cells stably transfected with OATP1B1, 5 μM FMTX, 10 min, 37 °C, means ± SD of three independent experiments; for Correctness of prediction, first symbol (OATP1B1): inhibitor class from measured IC50 against the consensus prediction
T1 construct: host or cells: CHO (Chinese hamster ovary) cells, stably transfected
T1 sequence (Q9Y6L6 1-691): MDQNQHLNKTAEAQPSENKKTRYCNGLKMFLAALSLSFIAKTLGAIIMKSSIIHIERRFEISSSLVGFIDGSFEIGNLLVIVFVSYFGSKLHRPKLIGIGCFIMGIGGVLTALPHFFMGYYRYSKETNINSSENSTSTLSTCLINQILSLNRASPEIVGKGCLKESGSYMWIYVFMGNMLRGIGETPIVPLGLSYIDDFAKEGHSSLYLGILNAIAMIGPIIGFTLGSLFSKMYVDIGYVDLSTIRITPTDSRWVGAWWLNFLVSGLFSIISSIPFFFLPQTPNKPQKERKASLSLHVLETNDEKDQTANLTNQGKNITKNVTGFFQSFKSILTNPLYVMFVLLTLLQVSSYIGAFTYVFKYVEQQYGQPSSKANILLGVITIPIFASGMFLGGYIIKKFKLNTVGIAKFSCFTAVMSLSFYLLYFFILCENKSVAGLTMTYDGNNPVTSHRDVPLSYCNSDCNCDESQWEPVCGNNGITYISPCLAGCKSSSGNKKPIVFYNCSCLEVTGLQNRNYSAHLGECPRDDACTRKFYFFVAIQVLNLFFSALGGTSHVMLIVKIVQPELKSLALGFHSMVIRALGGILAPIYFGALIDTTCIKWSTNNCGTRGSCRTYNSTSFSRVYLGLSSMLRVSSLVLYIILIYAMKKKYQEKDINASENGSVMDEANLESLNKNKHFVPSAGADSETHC
Protocol: (§1) Chinese hamster ovary (CHO) cells that were stably transfected with OATP1B1 or OATP1B3 and wild-type CHO cells were provided by the University of Zurich, Switzerland, and have been extensively characterized previously.[24],[56],[57] Cells were grown in Dulbecco’s modified Eagle medium (DMEM) supplemented with 10% FCS, 50 μg/mL L-proline, 100 U/mL penicillin, and 100 μg/mL streptomycin. The culture media of the transfected CHO cells additionally contained 500 μg/mL Geneticin sulfate (G418) (Sigma-Aldrich, Munich, Germany). Media and supplements were obtained from Invitrogen (Karlsruhe, Germany). Cells were incubated at 5% CO2 and 37 °C. For uptake experiments, CHO cells were seeded in 24-well plates (BD Biosciences, Heidelberg, Germany) at a density of 25,000 cells/well. Uptake assays were generally performed on day 3 after seeding, when the cells had grown to confluence. 24 h before starting the transport experiments, cells were additionally treated with 5 mM sodium butyrate (Sigma-Aldrich, Munich, Germany) to induce gene expression. Prior to the uptake experiments, cells were rinsed twice with 2 mL of prewarmed (37 °C) uptake buffer (116.4 mM NaCl, 5.3 mM KCL, 1 mM NaH2PO4, 0.8 mM MgSO4, 5.5 mM D-glucose, and 20 mM Hepes, pH adjusted to 7.4). Uptake was initiated by adding 0.5 mL of uptake buffer containing 5 μM of the fluorescent OATP1B1/1B3 substrate FMTX[58] in the presence or absence of inhibitors. After 10 min culture at 37 °C, uptake was stopped by removing the uptake solution and washing the cells 3 times with ice-cold uptake buffer. The cells were then lysed with 0.5 mL of 0.5% Triton X-100 solution dissolved in PBS and placed on a plate shaker for 30 min. Fluorescence was measured in an Enspire Multimode plate reader (PerkinElmer, Waltham, MA) at an excitation wavelength of 485 and an emission wavelength of 528 nm.
(§2) IC50 values were determined by plotting the log inhibitor concentration against the net uptake rate and nonlinear regression of the data set using the equation [drawing 1] in which y is the net uptake rate (pmol/μg of protein/min), I is the inhibitor concentration (μM), s is the slope at the point of inversion, and a and b are the maximum and minimum values for cellular uptake (GraphPad Software, San Diego, CA, USA) . Net uptake was calculated for each inhibitor concentration as the difference in the uptake rates of the transporter-expressing and wild-type cell lines. Unless otherwise indicated, values are expressed as mean ± SD of three individual experiments. Significant differences from control values were determined using a Student’s paired t test at a significance level of p < 0.05.

OATP1B3 = biological target: T2, OATP1B3 (Homo sapiens, UniProt Q9NPD5); assay: Inhibition of FMTX uptake in CHO cells stably transfected with OATP1B3; assay type: cell-based; conditions: for Correctness of prediction, second symbol (OATP1B3): inhibitor class from measured IC50 against the consensus prediction
T2 construct: host or cells: CHO (Chinese hamster ovary) cells, stably transfected
T2 sequence (Q9NPD5 1-702): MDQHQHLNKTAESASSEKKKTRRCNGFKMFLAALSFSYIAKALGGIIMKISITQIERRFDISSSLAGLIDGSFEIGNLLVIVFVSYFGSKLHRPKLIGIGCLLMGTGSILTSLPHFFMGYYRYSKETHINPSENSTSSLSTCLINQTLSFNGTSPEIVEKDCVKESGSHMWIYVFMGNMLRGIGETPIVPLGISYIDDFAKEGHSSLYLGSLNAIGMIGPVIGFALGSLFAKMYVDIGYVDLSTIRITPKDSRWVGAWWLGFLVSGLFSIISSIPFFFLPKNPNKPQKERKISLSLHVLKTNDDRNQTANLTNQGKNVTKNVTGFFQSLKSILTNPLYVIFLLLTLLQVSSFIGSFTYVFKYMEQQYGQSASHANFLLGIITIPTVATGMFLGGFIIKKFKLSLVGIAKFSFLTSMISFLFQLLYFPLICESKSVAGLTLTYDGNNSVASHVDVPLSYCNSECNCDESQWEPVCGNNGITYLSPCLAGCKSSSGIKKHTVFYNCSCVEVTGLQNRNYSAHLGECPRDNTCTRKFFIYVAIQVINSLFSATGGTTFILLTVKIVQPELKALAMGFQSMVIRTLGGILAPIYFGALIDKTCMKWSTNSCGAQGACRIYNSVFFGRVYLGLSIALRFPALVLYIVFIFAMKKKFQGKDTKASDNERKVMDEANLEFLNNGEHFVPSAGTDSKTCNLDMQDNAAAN
Protocol: as §1, §2

[1] = cited from earlier work
[2] = CHO cells stably transfected with OATP1B3, 5 μM FMTX, 10 min, 37 °C, means ± SD of three independent experiments, read-out: IC50 (μM) OATP1B3
[3] = remark printed after the IC50 value, read-out: OATP1B3 inhibition, remark in the IC50 cell

| SMILES | IC50 (OATP1B1) [µM] | Correctness of prediction, first symbol (OATP1B1) (OATP1B1) | IC50 (OATP1B3; [2]) | Correctness of prediction, second symbol (OATP1B3) (OATP1B3) | OATP1B1 inhibition, result in words (OATP1B1; false negative of the OATP1B1 consensus model) | IC50 (OATP1B3; [3]) [µM] | hepatotoxicity, literature reports [1] | hyperbilirubinemia, reports in online sources and literature [1] | hepatic serum enzymes, literature report [1] | effect on liver injury, literature report ([1]; diabetic patients) |
| --- | --- | --- | --- | --- | --- | --- | --- | --- | --- | --- |
| CN(C)c1cccc2c(S(=O)(=O)N[C@@H](Cc3ccc(OS(=O)(=O)c4cccc5c(N(C)C)cccc45)cc3)C(=O)O)cccc12 [N,O-Didansyl-L-Tyrosine] | 6.07 ± 0.56 | + (moderate inhibitors (IC50 values between 5 and 10 μM)) | 2.94 ± 0.75 µM | ++ (moderately strong inhibitor (IC50 values between 1 and 5 μM)) | – | – | – | – | – | – |
| Cc1cc2nc3c(=O)[nH]c(=O)nc-3n(C[C@H](O)[C@H](O)[C@H](O)COP(=O)(O)OP(=O)(O)OC[C@H]3O[C@@H](n4cnc5c(N)ncnc54)[C@H](O)[C@@H]3O)c2cc1C [Flavin adenine dinucleotide] | 6.62 ± 1.15 | x (wrong class prediction) | 10 ± 0.78 µM | + (moderate inhibitors (IC50 values between 5 and 10 μM)) | OATP1B1 inhibitor | – | – | – | – | – |
| CC(C)C[C@H](NC(=O)[C@H](CCc1ccccc1)NC(=O)CN1CCOCC1)C(=O)N[C@@H](Cc1ccccc1)C(=O)N[C@@H](CC(C)C)C(=O)[C@@]1(C)CO1 [Carfilzomib] | 0.38 ± 0.12 | +++,+++ (strong inhibitor (IC50 values less than 1 μM)) | 0.9 ± 0.17 µM | +++,+++ (strong inhibitor (IC50 values less than 1 μM)) | – | – | – | – | – | – |
| CS(=O)(=O)CCNCc1ccc(-c2ccc3ncnc(Nc4ccc(OCc5cccc(F)c5)c(Cl)c4)c3c2)o1 [Lapatinib] | 0.37 ± 0.19 | +++ (strong inhibitor (IC50 values less than 1 μM)) | > 10 µM and 33.8 µM | -+ (slight inhibitors (IC50 values above 10 μM)) | – | > 10 | some literature reports for hepatotoxicity | causing hyperbilirubinemia | – | – |
| CC(=O)Nc1cccc(-n2c(=O)n(C3CC3)c(=O)c3c(Nc4ccc(I)cc4F)n(C)c(=O)c(C)c32)c1 [Trametinib] | 0.34 ± 0.09 | +++ (strong inhibitor (IC50 values less than 1 μM)) | > 10 µM and 30.8 µM | -+ (slight inhibitors (IC50 values above 10 μM)) | – | > 10 | – | – | elevating hepatic serum enzymes | – |
| COc1ccc2c(c1)C(=O)N(CCc1ccc(S(=O)(=O)NC(=O)NC3CCCCC3)cc1)C(=O)C2(C)C [Gliquidone] | 7.45 ± 1.64 | + (moderate inhibitors (IC50 values between 5 and 10 μM)) | 1.17 ± 0.31 µM | ++ (moderately strong inhibitor (IC50 values between 1 and 5 μM)) | – | – | – | – | – | improve liver injury |
| COc1cc(C(=O)NS(=O)(=O)c2ccccc2C)ccc1Cc1cn(C)c2ccc(NC(=O)OC3CCCC3)cc12 [Zafirlukast] | 7.84 ± 0.49 | + (moderate inhibitors (IC50 values between 5 and 10 μM)) | 4.96 ± 0.92 µM | ++ (moderately strong inhibitor (IC50 values between 1 and 5 μM)) | – | – | some literature reports for hepatotoxicity | causing hyperbilirubinemia | – | – |
